Key:
[1] = biological target: T1, human adenosine A2A receptor (Homo sapiens, UniProt P29274); experiment: Human adenosine A2A receptor [3H]-SCH-58261 binding assay; settings: for selectivity (A1/A2a): ratio KiHA1 divided by KiHA2A; for Ki: recombinant human A2A in CHO cell membranes, [3H]-SCH-58261, Cheng-Prussoff, read-out: Ki hA2A
T1 construct: expressed in transfected cells; host or cells: CHO cells, Semliki Forest virus expression system; membrane preparation

HA1 adenosine receptor = biological target: T2, HA1 adenosine receptor (Homo sapiens, UniProt P30542); experiment: Human adenosine A1 receptor affinity (Ki hA1); assay type: binding
T2 sequence (P30542 1-326): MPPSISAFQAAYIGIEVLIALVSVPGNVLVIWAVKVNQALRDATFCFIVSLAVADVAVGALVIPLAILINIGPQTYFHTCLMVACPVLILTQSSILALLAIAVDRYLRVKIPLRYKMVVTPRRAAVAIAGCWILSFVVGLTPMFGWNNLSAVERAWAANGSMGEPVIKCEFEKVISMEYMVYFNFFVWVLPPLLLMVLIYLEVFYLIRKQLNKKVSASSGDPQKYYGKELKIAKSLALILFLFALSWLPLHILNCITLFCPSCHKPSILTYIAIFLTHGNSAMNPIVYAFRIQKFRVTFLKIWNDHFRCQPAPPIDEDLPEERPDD

T1 sequence (P29274 whole entry): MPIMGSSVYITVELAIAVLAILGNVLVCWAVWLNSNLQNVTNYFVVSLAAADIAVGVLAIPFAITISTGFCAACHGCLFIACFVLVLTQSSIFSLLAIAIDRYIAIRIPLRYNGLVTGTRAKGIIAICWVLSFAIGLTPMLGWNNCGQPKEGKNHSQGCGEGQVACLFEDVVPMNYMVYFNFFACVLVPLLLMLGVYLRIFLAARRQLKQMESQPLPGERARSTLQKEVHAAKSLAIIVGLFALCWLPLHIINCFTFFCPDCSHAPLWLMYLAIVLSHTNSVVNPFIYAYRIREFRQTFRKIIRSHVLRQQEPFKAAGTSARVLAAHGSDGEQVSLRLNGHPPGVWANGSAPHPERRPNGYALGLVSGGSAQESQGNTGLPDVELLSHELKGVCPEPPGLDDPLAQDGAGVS

Row | selectivity (A1/A2a) [1] | Ki [1] [µM] | Ki (HA1 adenosine receptor) [µM] | SMILES
1 | 24.6 | 0.0338 | 0.832 | CC1CC(C)CN(C(=O)c2cc(N)n3nc(-c4ccccn4)nc3c2)C1 (stereo not drawn) [Example 423, (5-Amino-2-pyridin-2-yl-[1,2,4]triazolo[1,5-a]pyridin-7-yl)-(3,5-dimethyl-piperidin-1-yl)-methanone]
2 | 17.7 | 0.0496 | 0.878 | CCCN(CC1CC1)C(=O)c1cc(N)n2nc(-c3ccccn3)nc2c1 [Example 424, 5-Amino-2-pyridin-2-yl-[1,2,4]triazolo[1,5-a]pyridine-7-carboxylic acid cyclopropylmethyl-propyl-amide]
3 | 31.7 | 0.0408 | 1.29 | COC[C@H]1CCCN1C(=O)c1cc(N)n2nc(-c3ccccn3)nc2c1 [Example 425, (5-Amino-2-pyridin-2-yl-[1,2,4]triazolo[1,5-a]pyridin-7-yl)-(R-2-methoxymethyl-pyrrolidin-1-yl)-methanone]
4 | 15.3 | 0.031 | 0.474 | C=CCN(C(=O)c1cc(N)n2nc(-c3ccccn3)nc2c1)C1CCCC1 [Example 429, 5-Amino-2-pyridin-2-yl-[1,2,4]triazolo[1,5-a]pyridine-7-carboxylic acid allyl-cyclopentyl-amide]
5 | 31.2 | 0.0331 | 1.03 | CCN(Cc1ccncc1)C(=O)c1cc(N)n2nc(-c3ccccn3)nc2c1 [Example 431, 5-Amino-2-pyridin-2-yl-[1,2,4]triazolo[1,5-a]pyridine-7-carboxylic acid ethyl-pyridin-4-ylmethyl-amide]
6 | 27.2 | 0.088 | 2.4 | CN(C)C(=O)C1CCCN1C(=O)c1cc(N)n2nc(-c3ccccn3)nc2c1 (stereo not drawn) [Example 432, 1-(5-Amino-2-pyridin-2-yl-[1,2,4]triazolo[1,5-a]pyridine-7-carbonyl)-pyrrolidine-2-carboxylic acid dimethyl amide]
7 | 11.8 | 0.0156 | 0.185 | CC(C)N(Cc1ccccc1)C(=O)c1cc(N)n2nc(-c3ccccn3)nc2c1 [Example 433, 5-Amino-2-pyridin-2-yl-[1,2,4]triazolo[1,5-a]pyridine-7-carboxylic acid benzyl-isopropyl-amide]
8 | 21 | 0.19 | 3.99 | CCN(CCOC)C(=O)c1cc(N)n2nc(-c3nccs3)nc2c1 [Example 498, 5-Amino-2-thiazol-2-yl-[1,2,4]triazolo[1,5-a]pyridine-7-carboxylic acid ethyl-(2-methoxy-ethyl)-amide]

Second part, the molecule before the results:

Row | SMILES | selectivity (A1/A2a) [1] | Ki [1] [µM] | Ki (HA1 adenosine receptor) [µM]
9 | CCCN(CCC)C(=O)c1cc(N)n2nc(-c3ccccn3)nc2c1 [Example 420, 5-Amino-2-pyridin-2-yl-[1,2,4]triazolo[1,5-a]pyridine-7-carboxylic acid dipropylamide] | 17.5 | 0.103 | 1.81
10 | CCCCN(CC)C(=O)c1cc(N)n2nc(-c3ccccn3)nc2c1 [Example 421, 5-Amino-2-pyridin-2-yl-[1,2,4]triazolo[1,5-a]pyridine-7-carboxylic acid butyl-ethyl-amide] | 15.9 | 0.0857 | 1.36
11 | Nc1cc(C(=O)N2CCCCCCC2)cc2nc(-c3ccccn3)nn12 [Example 422, (5-Amino-2-pyridin-2-yl-[1,2,4]triazolo[1,5-a]pyridin-7-yl)-azocan-1-yl-methanone] | 21.4 | 0.0174 | 0.372
12 | COC[C@@H]1CCCN1C(=O)c1cc(N)n2nc(-c3ccccn3)nc2c1 [Example 426, (5-Amino-2-pyridin-2-yl-[1,2,4]triazolo[1,5-a]pyridin-7-yl)-(S-2-methoxymethyl-pyrrolidin-1-yl)-methanone] | 17.2 | 0.119 | 2.05
13 | CCCCN(CCC)C(=O)c1cc(N)n2nc(-c3ccccn3)nc2c1 [Example 427, 5-Amino-2-pyridin-2-yl-[1,2,4]triazolo[1,5-a]pyridine-7-carboxylic acid butyl-propyl-amide] | 11.7 | 0.102 | 1.19
14 | CCC1CCC(C)N(C(=O)c2cc(N)n3nc(-c4ccccn4)nc3c2)C1 (stereo not drawn) [Example 430, (5-Amino-2-pyridin-2-yl-[1,2,4]triazolo[1,5-a]pyridin-7-yl)-(5-ethyl-2-methyl-piperidin-1-yl)-methanone] | 10.8 | 0.0636 | 0.689
15 | Nc1cc(C(=O)N(Cc2ccccc2)Cc2ccccc2)cc2nc(-c3ccccn3)nn12 [Example 435, 5-Amino-2-pyridin-2-yl-[1,2,4]triazolo[1,5-a]pyridine-7-carboxylic acid dibenzylamide] | 19 | 0.0064 | 0.121

Reference: patent publication US6506772B1, “Substituted [1,2,4]triazolo[1,5a]pyridine derivatives with activity as adenosine receptor ligands” (Hoffmann-La Roche Inc., priority 2000, dated 2003)
